Assay results reported in ChEMBL document CHEMBL1201862, “PubChem BioAssay data set” (2004).
Activity calls are given as the source filed them.

Assays:
[1] = system: Streptococcus; experiment: Group A Streptococcus viability loss, dose response, counter-screen for streptokinase expression inhibitor project, luminescence, BacTiterGlo (AID 1915); format: functional, organism-based;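 note: potency for reduction of bacterial viability or growth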
[2] = Luminescence-based dose response cell-based high throughput screening assay for cytotoxic compounds using the IEC-6 intestinal epithelial cell line. [Related pubchem assays: 1858 (Summary AID.), 1825 (Counterscreen.), 1907 (Confirmation screen.)]; format: functional
[3] = molecular target: Paired box protein Pax-8 (Homo sapiens, UniProt Q06710); experiment: inhibitors of PAX8-driven TPO luciferase reporter, dose response, RMG-I cells, cherry-pick (AID 687027); format: functional, cell-based;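 note: luciferase reporter driven by Pax8 target thyroperoxidase promoter measured by SteadyGlo luminescence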
[4] = molecular target: T1, Tyrosine-protein phosphatase non-receptor type 22 (Homo sapiens, UniProt Q9Y2R2); format: functional
T1 sequence (Q9Y2R2 whole entry): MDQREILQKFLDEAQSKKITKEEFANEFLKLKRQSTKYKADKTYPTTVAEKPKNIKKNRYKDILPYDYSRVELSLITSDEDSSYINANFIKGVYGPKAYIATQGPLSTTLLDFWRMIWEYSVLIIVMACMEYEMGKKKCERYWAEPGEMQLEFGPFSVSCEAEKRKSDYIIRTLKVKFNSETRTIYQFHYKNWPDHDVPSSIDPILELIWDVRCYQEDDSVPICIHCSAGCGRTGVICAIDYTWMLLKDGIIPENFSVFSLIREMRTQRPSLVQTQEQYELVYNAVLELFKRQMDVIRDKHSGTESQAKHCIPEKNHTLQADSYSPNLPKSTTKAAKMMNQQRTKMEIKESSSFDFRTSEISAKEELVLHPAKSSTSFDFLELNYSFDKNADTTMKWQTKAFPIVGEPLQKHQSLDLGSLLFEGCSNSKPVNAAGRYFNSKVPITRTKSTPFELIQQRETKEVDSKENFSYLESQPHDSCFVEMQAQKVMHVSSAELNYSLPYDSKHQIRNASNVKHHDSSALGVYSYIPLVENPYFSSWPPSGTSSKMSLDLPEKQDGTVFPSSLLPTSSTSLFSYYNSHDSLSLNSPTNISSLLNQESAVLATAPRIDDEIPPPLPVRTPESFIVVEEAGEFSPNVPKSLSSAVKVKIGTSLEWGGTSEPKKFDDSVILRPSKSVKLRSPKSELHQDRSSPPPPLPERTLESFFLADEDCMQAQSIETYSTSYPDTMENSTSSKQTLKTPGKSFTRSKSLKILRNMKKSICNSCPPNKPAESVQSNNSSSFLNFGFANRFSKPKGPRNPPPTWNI

[5] = molecular target: T1, Tyrosine-protein phosphatase non-receptor type 22; format: functional; remark: listed apart in the source
[6] = molecular target: Serine/threonine-protein phosphatase PP1-alpha catalytic subunit (Homo sapiens, UniProt P62136); experiment: PP1 phosphatase inhibitors, dose response, biochemical, fluorescence (AID 2394)
[7] = molecular target: T2, Sentrin-specific protease 8 (Homo sapiens, UniProt Q96LD8); format: functional;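 note: kinetic enzyme assay of SENP8 cleaving a Nedd8 protein substrate, dose-response confirmation of screening hits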
T2 sequence (Q96LD8 whole entry): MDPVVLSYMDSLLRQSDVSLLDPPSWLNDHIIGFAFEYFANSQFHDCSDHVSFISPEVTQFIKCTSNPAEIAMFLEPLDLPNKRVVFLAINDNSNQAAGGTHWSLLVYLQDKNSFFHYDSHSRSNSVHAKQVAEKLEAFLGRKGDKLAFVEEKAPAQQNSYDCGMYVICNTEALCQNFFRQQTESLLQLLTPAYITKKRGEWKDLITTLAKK

[8] = molecular target: 1-phosphatidylinositol 4,5-bisphosphate phosphodiesterase beta-3 (Homo sapiens, UniProt Q01970); experiment: Fluorescence-based biochemical high throughput dose response assay to identify inhibitors of phospholipase C isozymes (PLC-B3).
[9] = molecular target: Peroxisome proliferator-activated receptor gamma/Nuclear receptor corepressor 2 (Homo sapiens, UniProt P37231+Q9Y618); format: functional
[10] = molecular target: Photoreceptor-specific nuclear receptor (Homo sapiens, UniProt Q9Y5X4); format: functional;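 note: potency for compounds that break the NR2E3 corepressor complex and count as activators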
[11] = inhibitors of intracellular T. cruzi replication, confirmation, NIH3T3 host cells, beta-gal luminescence (AID 2044); format: functional, cell-based;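 note: intracellular parasites grown in NIH/3T3 mouse fibroblasts as host cells; luminescent beta-galactosidase reporter signal from transgenic T. cruzi replicating inside host cells; inhibitors lower the luminescence signal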
[12] = molecular target: Small ubiquitin-related modifier 2 (Homo sapiens, UniProt P61956); experiment: inhibitors of SUMO2 protein-protein interaction, dose response, selectivity assay for SUMO1 interaction inhibitor project, biochemical, FRET, human SUMO2, uHTS hits (AID 624384); format: functional; settings: read-out: IC50_Mean
[13] = molecular target: 72 kDa type IV collagenase (Homo sapiens, UniProt P08253); experiment: Dose Response validation of uHTS RPN11 inhibitor hits using a MMP-2 Fluorescence assay.; format: functional
[14] = molecular target: Prothrombin (Bos taurus, UniProt P00735); experiment: thrombin inhibition, dose response, biochemical, fluorescence polarization, uHTS hits (AID 602369); format: functional
[15] = molecular target: 26S proteasome non-ATPase regulatory subunit 14 (Homo sapiens, UniProt O00487); experiment: inhibition of proteasome subunit RPN11 – biochemical, fluorescence polarization, uHTS hits, confirmation (AID 602368); format: functional
Sequence of 26S proteasome non-ATPase regulatory subunit 14 (O00487 whole entry): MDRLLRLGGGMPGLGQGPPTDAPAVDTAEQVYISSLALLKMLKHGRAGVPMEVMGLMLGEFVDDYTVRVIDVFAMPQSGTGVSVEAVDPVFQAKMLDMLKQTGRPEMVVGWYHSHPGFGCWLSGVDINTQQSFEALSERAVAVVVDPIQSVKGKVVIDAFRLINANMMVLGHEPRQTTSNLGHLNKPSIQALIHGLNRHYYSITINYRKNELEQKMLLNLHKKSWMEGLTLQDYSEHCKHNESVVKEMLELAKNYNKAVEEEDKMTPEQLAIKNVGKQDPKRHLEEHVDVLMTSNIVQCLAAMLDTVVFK

Sequence of Photoreceptor-specific nuclear receptor (Q9Y5X4 whole entry): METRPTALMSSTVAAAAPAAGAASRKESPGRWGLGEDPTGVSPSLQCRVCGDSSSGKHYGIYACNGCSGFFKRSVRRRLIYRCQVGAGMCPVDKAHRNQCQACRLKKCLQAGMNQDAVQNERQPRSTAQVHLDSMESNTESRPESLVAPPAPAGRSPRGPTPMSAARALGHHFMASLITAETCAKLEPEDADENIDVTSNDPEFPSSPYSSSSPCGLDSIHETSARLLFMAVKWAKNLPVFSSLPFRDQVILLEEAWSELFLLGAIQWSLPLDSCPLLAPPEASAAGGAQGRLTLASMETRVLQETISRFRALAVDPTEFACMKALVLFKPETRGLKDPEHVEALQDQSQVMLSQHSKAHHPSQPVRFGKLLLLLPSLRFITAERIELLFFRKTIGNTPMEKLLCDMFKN
Sequence of Paired box protein Pax-8 (Q06710 whole entry): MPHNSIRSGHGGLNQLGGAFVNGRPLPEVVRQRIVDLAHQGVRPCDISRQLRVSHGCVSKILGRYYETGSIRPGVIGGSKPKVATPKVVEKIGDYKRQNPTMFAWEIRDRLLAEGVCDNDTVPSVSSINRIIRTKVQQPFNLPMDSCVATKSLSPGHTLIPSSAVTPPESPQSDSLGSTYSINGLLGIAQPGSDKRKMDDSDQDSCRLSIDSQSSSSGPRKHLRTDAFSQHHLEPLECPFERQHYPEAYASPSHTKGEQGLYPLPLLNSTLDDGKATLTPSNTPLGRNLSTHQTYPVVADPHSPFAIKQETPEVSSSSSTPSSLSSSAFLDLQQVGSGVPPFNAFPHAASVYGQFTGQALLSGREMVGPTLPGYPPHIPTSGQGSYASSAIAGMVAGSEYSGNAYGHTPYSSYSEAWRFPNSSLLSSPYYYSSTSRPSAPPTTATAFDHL
Sequence of 72 kDa type IV collagenase (P08253 whole entry): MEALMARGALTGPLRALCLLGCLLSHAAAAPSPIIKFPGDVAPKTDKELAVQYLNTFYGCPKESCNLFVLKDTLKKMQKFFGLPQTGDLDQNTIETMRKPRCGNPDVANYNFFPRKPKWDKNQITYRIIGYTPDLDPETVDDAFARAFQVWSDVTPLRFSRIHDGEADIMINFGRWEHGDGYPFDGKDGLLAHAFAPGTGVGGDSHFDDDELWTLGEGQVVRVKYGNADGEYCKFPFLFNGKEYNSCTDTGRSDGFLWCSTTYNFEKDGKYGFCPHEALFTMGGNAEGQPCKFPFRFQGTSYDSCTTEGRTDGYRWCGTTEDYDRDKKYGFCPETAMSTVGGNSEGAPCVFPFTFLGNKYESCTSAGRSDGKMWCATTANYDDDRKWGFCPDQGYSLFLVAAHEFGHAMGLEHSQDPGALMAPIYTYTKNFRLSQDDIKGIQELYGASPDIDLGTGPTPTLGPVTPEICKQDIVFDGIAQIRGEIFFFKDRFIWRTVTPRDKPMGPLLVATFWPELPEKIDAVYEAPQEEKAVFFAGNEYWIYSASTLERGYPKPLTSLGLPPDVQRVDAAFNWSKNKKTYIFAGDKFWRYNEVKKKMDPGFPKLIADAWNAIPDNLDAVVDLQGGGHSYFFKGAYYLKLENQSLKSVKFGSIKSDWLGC
Sequence of Small ubiquitin-related modifier 2 (P61956 whole entry): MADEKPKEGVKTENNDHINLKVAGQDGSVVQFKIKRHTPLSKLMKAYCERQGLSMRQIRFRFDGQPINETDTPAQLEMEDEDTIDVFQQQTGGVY
Sequence of Serine/threonine-protein phosphatase PP1-alpha catalytic subunit (P62136 whole entry): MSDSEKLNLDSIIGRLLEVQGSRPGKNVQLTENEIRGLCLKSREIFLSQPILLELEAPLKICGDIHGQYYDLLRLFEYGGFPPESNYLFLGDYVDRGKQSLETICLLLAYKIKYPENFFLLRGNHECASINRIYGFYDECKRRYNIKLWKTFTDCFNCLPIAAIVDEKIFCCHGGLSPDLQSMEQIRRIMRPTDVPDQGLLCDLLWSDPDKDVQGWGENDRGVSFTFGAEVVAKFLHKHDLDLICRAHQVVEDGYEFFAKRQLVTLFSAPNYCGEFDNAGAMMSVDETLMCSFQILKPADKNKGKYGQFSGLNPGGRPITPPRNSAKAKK
Sequence of 1-phosphatidylinositol 4,5-bisphosphate phosphodiesterase beta-3 (Q01970 whole entry): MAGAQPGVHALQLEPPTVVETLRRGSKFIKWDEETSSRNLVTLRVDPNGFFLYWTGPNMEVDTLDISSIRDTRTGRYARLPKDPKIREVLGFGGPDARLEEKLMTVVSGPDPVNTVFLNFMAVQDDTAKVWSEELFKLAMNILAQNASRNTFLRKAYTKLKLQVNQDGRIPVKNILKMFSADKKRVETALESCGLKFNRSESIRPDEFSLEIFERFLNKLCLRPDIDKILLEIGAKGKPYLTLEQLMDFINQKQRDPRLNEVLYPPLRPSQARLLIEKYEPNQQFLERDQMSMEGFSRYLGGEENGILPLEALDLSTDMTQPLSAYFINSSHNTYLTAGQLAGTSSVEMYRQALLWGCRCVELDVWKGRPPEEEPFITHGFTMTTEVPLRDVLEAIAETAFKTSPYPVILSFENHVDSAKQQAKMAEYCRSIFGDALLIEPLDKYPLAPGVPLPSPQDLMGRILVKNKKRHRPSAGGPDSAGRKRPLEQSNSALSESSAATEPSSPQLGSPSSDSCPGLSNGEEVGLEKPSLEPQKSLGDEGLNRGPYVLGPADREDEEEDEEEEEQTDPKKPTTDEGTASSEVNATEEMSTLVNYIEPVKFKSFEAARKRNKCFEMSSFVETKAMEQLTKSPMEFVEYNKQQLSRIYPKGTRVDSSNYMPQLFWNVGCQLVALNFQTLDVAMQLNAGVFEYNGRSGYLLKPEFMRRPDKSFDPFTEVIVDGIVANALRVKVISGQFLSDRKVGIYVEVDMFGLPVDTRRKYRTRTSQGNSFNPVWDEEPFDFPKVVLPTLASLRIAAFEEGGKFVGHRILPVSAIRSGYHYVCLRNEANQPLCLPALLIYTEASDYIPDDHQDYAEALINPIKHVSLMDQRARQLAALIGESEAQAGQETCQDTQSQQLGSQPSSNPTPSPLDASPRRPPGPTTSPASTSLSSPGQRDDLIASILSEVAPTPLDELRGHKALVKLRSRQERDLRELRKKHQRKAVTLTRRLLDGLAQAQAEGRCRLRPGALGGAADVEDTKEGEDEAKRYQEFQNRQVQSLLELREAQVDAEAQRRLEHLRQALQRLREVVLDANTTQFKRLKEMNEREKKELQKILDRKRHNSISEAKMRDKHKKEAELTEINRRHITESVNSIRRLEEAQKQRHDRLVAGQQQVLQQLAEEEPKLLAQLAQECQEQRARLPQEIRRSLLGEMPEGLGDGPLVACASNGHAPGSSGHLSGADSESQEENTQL

O=C1c2ccccc2C(=O)c2[nH]c(O)nc21
EC50 [1]: > 150 µM (not active)
IC50 [2]: 1.81 µM (active)
AC50 [3]: 5.72 µM (active)

N#Cc1c(N2CCCC2)nc(N)c2c(N)nc(N3CCCC3)cc12
IC50 [4]: > 79.4 µM (inactive)
IC50 [5]: > 79.4 µM (inactive)

CCOC(=O)C1=C(C)OC2(O)c3ccccc3C(=O)C12O (stereo not given)
IC50 [6]: 49 µM (not active)
IC50 [7]: 0.284 µM (active)

COC(=O)c1cc(C)nc2c1C(=O)C(=O)C=C2N1CCOCC1
IC50 [8]: > 123 µM (inactive)
IC50 [9]: > 39.8 µM (not active)
IC50 [10]: > 39.8 µM (not active)
EC50 [11]: 2.34 µM (active)

NS(=O)(=O)c1cc(C(=O)NC2CCSc3ccccc32)ccc1Cl (stereo not given)
IC50 [12]: 1.75 µM (active)
IC50 [13]: 2.68 µM (active)
IC50 [14]: 24.5 µM (active)
IC50 [15]: 0.763 µM (active)
